# Source: patent publication US20240173432A1, “Compositions and Methods for Treatment of Myotonic Dystrophy Type 1 with CRISPR/SluCas9” (Vertex Pharmaceuticals Incorporated, priority 2021, published 2024)
# Tested on: CUG foci in primary DM1 patient myoblasts
# Test: Single-cut screening: FISH staining of CUG RNA foci
# Type: cell-based, human
# Details: for frequency of CUG foci free myoblast nuclei (foci number per nucleus=0) / frequency of myoblast nuclei that contain more than three CUG foci: RNA foci distribution analysis (FIG. 6A-B); for % of CUG foci free nuclei (DNA-PKi) / % of CUG foci free nuclei (Vehicle): single sgRNA, primary DM1 patient myoblasts; for % of CUG foci free nuclei (DNA-PKi): DNA-PKi treated
# Outline: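 CD56-purified primary DM1 patient myoblasts nucleofected with SluCas9:sgRNA RNP (30:90 pmol, single-cut), then DMSO or 3 μM DNA-PK inhibitor for 48 h. At 72 h post-nucleofection, cells fixed and stained for CUG foci with Cy3-PNA(CAG)5 probe (1 ng/μL, 80 °C), co-stained for MBNL1 and Hoechst, imaged by high-content confocal microscopy.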
Substance,frequency of CUG foci free myoblast nuclei (foci number per nucleus=0),frequency of myoblast nuclei that contain more than three CUG foci,% of CUG foci free nuclei (DNA-PKi),% of CUG foci free nuclei (Vehicle),"percentage of CUG foci free nuclei (single-cut, DNA-PKi treatment (3 μM Compound 6, 48 hrs))"
"ATGGGCAAACTGCAGGCCTGGG (listed as DNA, chemistry not fully specified) [SluD14]",increased the frequency,reduced the frequency,81.82%,53.12%,81.82%
"GCCCCGTTGGAAGACTGAGTGC (listed as DNA, chemistry not fully specified) [SluU08]",–,–,61.56%,31.42%,–
"gggcTCGAAGGGTCCTTGTAGC (as printed in the source, key not given here) [SluU64]",–,–,67.39%,37.58%,–
"ggggcTCGAAGGGTCCTTGTAG (as printed in the source, key not given here) [SluU63]",increased the frequency,reduced the frequency,70.99%,44.78%,–
